Assay results as given in US20260108451A1, “COMPOSITIONS FOR THE MANAGEMENT OF HIRSUTISM” (priority 2022, published 2026).

System: Ornithine decarboxylase (ODC)
Test: Expression of ornithine decarboxylase (ODC) by flow cytometry in dermal papilla cells
Type: cell-based, human
Conditions: Control 26.8%
Method: Dermal papilla cells (DPC) were cultured in DMEM medium with 10% FBS and seeded in 96 well tissue culture plate for the test. 24 hrs post seeding, DPC were treated with the test sample Ar-Turmerone at graded concentrations and incubated for 48 hrs in 5% CO2 incubator at 37° C. After 48 hrs the cells were collected from each well. These cells were incubated with Fluorescein isothiocyanate (FITC) labelled Ornithine-de-carboxylase antibody. After being washed with sterile PBS, samples were resuspended in PBS (pH 7.4) and acquired directly on the Flow cytometer. A fluorescence trigger was set on the FITC (FL1) parameter of the gated DPC populations (10,000 events). Percentage decrease of ODC expression in test samples was calculated with respect to un-treated cells (control), (FIG. 1).

NCCCC(N)(C(=O)O)C(F)F (stereo not shown) [Eflornithine]
% Expression of ODC at 100 μg/ml: 11.4%
